Measured values: ChEMBL document CHEMBL5131421, “Cadinane Sesquiterpenoids and Their Glycosides from Alangium chinense That Inhibit Spontaneous Calcium Oscillations” (J Nat Prod, 2022)

Legend:
[1] = Neuroprotective activity in primary neocortical neuron (unknown origin) assessed as inhibition of 4-AP-induced spontaneous calcium channel oscillation amplitude measured after 15 min by Fluo-4AM dye based fluorescence assay; assay type: functional, cell-based
[2] = Neuroprotective activity in primary neocortical neuron (unknown origin) assessed as inhibition of 4-AP-induced spontaneous calcium channel oscillation frequency measured after 15 min by Fluo-4AM dye based fluorescence assay; assay type: functional, cell-based
[3] = Primary neocortical neuron, 0.25 h

## Cc1cc2c(cc1O)C(=O)[C@](C)(c1ccc(O)c(O)c1)C=C2C(C)C
[1]; [3]
  IC50: 8.03 µM
[2]; [3]
  IC50: 1910 nM

## Cc1cc2c(cc1O)C(=O)[C@@](C)(c1ccc(O)c(O)c1)C=C2C(C)C
[1]; [3]
  IC50: 5.77 µM
[2]; [3]
  IC50: 2580 nM

## Cc1cc2c(cc1O)[C@@](C)(c1ccc(O)c(O)c1)C(=O)C=C2C(C)C
[1]; [3]
  IC50: 7.38 µM
[2]; [3]
  IC50: 3090 nM

## Cc1cc2c(cc1O)[C@](C)(c1ccc(O)c(O)c1)C(=O)C=C2C(C)C
[1]; [3]
  IC50: 5.36 µM
[2]; [3]
  IC50: 2050 nM

## Cc1cc2c(cc1O)C(=O)C(C)(c1ccc(O)c(O)c1)C=C2C(C)C (racemic)
[1]; [3]
  IC50: 6.1 µM
[2]; [3]
  IC50: 970 nM

## Cc1cc2c(cc1O)C(C)(c1ccc(O)c(O)c1)C(=O)C=C2C(C)C (racemic)
[1]; [3]
  IC50: 5.56 µM
[2]; [3]
  IC50: 3450 nM

## NC1=N[C@H](O)[C@H]2[C@H]3O[C@]4(O)O[C@@H]([C@@H](O)[C@@]2(N1)[C@@H]4O)[C@]3(O)CO [TETRODOTOXIN]
[1]; primary neocortical neuron
  IC50: 0.00169 µM
[2]; primary neocortical neuron
  IC50: 4.93 nM
